Data published in BindingDB's records for patent US11104664 (Yangtze River Pharmaceutical Group Co., 2021).

Molecular target: Histone-lysine N-methyltransferase EZH2 [Y641F] (Homo sapiens, UniProt Q15910, Y641F)
Experiment: In Vitro Methyltransferase Activity Assay
Protocol: Recombinant PRC2 (EZH2-Y641F) was purchased from Active motif, S-adenosyl-methionine (SAM) and Poly-L-lysine (PLL) were purchased from Sigma-Aldrich, and H3(1-50)K27me1 peptide was purchased from Cisbio. LANCEUltrasystem (Perkinelmer) was used for detection system. In the enzyme activity test, compounds to be tested were diluted by 8 gradient points in a ratio of 1:3, and added into each well in a reaction plate, and 100 ng recombinase was added, followed by a buffer [20 mM Tris pH8.5, 2 mM MgCl2, 0.01% Tween-20, 1 mM TCEP] containing 2.5 uM SAM/250 nM H3 (1-50)K27me1 premixtures. Enzymatic reaction thus began at room temperature. After reacted for 3 hours, a detection solution premixed with PLL, detection antibody and Ulight was added, and reacted for 1 hour at room temperature. The fluorescence value was then read on a Tecan infinite pro. IC50 was calculated by fitting in a four-factor model in the XLfit software.

Sequence of Histone-lysine N-methyltransferase EZH2 [Y641F] (Q15910 whole entry Y641F): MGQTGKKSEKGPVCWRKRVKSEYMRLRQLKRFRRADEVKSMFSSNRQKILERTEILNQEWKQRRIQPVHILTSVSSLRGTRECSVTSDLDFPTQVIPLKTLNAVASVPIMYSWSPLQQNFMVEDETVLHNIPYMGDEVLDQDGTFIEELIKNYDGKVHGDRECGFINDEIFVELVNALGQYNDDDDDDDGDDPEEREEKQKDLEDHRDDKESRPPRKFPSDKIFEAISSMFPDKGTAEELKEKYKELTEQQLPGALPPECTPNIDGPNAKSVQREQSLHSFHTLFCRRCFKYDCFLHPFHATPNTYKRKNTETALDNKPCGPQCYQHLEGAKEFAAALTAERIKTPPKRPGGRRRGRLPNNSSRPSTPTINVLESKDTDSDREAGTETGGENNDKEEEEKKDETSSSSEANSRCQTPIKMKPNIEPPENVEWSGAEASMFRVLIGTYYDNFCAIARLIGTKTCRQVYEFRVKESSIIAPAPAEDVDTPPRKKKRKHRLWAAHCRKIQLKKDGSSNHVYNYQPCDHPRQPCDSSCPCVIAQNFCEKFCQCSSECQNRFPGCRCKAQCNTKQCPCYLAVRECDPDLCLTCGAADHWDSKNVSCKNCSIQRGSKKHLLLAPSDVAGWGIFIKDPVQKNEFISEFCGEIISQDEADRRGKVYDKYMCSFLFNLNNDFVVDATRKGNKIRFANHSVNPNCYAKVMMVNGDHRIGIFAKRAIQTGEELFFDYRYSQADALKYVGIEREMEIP

CCN(c1c(C)c(C(=O)NCc2c(C)cc(C)[nH]c2=O)cc2c1cnn2C)C1CCOCC1 [US11104664, Compound P-7]
IC50: 12 nM
